Test results from the supplement of paper PMC10307832.

What was measured:
Assay in all cases: relative viability (nuclei count vs DMSO), 5 days (fraction); higher = more cells survive
[1] = compound: Cc1cc([C@@H](C)Nc2ccccc2C(=O)O)c2nc(N3CCOCC3)cc(=O)n2c1 [AZD6482] + CCNC(=O)c1noc(-c2cc(C(C)C)c(O)cc2O)c1-c1ccc(CN2CCOCC2)cc1 [Luminespib] (partner 0.01 µM)
Summary of the method: (§1)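 Lung cancer cell lines, seeded in 1536-well plates, were treated the following day by pin tool with a single drug or with five library-drug doses (not always all listed) in √10 steps on top of a fixed anchor-drug dose. Cells were fixed and nuclei stained in one step after 5 days, and nuclei were counted. Relative viability is the nuclei count for treated wells divided by that for vehicle wells, reported as medians of duplicate plates.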

[2] = compound: COc1cc2nc(N3CCCN(C)CC3)nc(NC3CCN(Cc4ccccc4)CC3)c2cc1OC + CS(=O)(=O)CCNCc1ccc(-c2ccc3ncnc(Nc4ccc(OCc5cccc(F)c5)c(Cl)c4)c3c2)o1 [Lapatinib] (partner 2 µM)
Summary of the method: as §1

[3] = compound: COc1cc2nc(N3CCCN(C)CC3)nc(NC3CCN(Cc4ccccc4)CC3)c2cc1OC + CC1(C)CCC(c2ccc(Cl)cc2)=C(CN2CCN(c3ccc(C(=O)NS(=O)(=O)c4ccc(N[C@H](CCN5CCOCC5)CSc5ccccc5)c(S(=O)(=O)C(F)(F)F)c4)cc3)CC2)C1 [Navitoclax] (partner 0.5 µM)
Summary of the method: as §1

[4] = compound: Cc1cc([C@@H](C)Nc2ccccc2C(=O)O)c2nc(N3CCOCC3)cc(=O)n2c1 [AZD6482] + Cc1nc(Nc2ncc(C(=O)Nc3c(C)cccc3Cl)s2)cc(N2CCN(CCO)CC2)n1 [Dasatinib] (partner 0.075 µM)
Summary of the method: as §1

Cell Line	relative viability ([1]; first compound 0.08 µM)	relative viability ([1]; first compound 0.253 µM)	relative viability ([1]; first compound 0.8 µM)	relative viability ([1]; first compound 2.53 µM)	relative viability ([1]; first compound 8 µM)	relative viability ([2]; first compound 0.2 µM)	relative viability ([2]; first compound 0.6325 µM)	relative viability ([2]; first compound 2 µM)	relative viability ([2]; first compound 6.325 µM)	relative viability ([3]; first compound 0.2 µM)	relative viability ([3]; first compound 0.6325 µM)	relative viability ([3]; first compound 2 µM)	relative viability ([3]; first compound 6.325 µM)	relative viability ([4]; first compound 0.08 µM)	relative viability ([4]; first compound 0.253 µM)	relative viability ([4]; first compound 0.8 µM)	relative viability ([4]; first compound 2.53 µM)	relative viability ([4]; first compound 8 µM)
NCI-H1975	0.171	0.272	0.17	0.162	0.224	0.93	0.968	1.01	0.881	1.2	1.18	1.21	1.05	0.312	0.327	0.389	0.289	0.235
CAL-12T	0.476	0.204	0.338	0.171	0.325	0.58	0.626	0.603	0.672	1.28	1.23	1.27	1.19	0.403	0.393	0.332	0.21	0.171
NCI-H1623	0.48	0.402	0.472	0.45	0.413	–	–	–	–	–	–	–	–	0.521	0.524	0.457	0.426	0.395
HCC-44	0.941	1.12	0.98	0.824	1.1	1.01	0.989	1.05	1.04	0.908	0.968	1.02	0.945	–	–	–	–	–
EKVX	0.778	0.748	0.74	0.625	0.557	0.194	0.218	0.232	0.223	0.826	0.926	1.04	0.881	0.465	0.507	0.504	0.304	0.3
NCI-H1651	0.779	0.805	0.773	0.812	0.753	0.785	0.807	0.834	0.855	1.14	1.02	1.42	1.03	0.335	0.435	0.401	0.337	0.307
NCI-H1944	0.775	0.621	0.858	0.546	0.589	0.778	0.961	–	0.762	1.1	1.02	–	0.982	0.223	0.191	0.238	0.172	0.182
NCI-H1703	–	–	–	–	–	0.981	0.901	1.05	0.458	1.25	0.92	1.11	0.41	–	–	–	–	–
Calu-6	–	–	–	–	–	1.02	0.985	1.19	0.985	0.84	0.809	0.763	0.602	–	–	–	–	–
EBC-1	–	–	–	–	–	0.222	0.177	0.18	0.155	0.408	0.386	0.382	0.165	–	–	–	–	–
SW 1573	0.218	0.219	0.246	0.194	0.206	1.15	1.07	1.26	1.05	0.941	0.868	1.08	0.755	0.459	0.357	0.328	0.239	0.206
A-427	0.974	0.79	0.986	–	0.677	1.07	0.977	1.05	1	1.04	0.966	1	0.948	0.717	0.615	0.715	–	0.754
NCI-H2347	0.329	0.231	0.583	0.27	0.281	0.901	1.01	0.954	0.911	0.764	0.771	0.873	0.693	0.271	0.244	0.262	0.298	0.281
NCI-H1355	0.53	0.556	0.702	0.422	0.52	1.01	0.992	1.05	0.951	0.918	0.947	1.01	0.921	0.479	0.496	0.766	0.492	0.456
NCI-H358	0.422	0.485	0.338	0.173	0.199	0.449	0.554	0.49	0.347	–	–	–	–	0.151	0.186	0.132	0.0881	0.153
PC-3 [JPC-3]	0.634	0.689	0.655	0.509	0.588	0.481	0.424	0.438	0.468	0.89	0.815	0.775	0.741	0.887	0.959	0.898	0.769	0.791
NCI-H2228	–	0.119	0.118	0.115	0.169	0.959	1.34	1.23	0.757	0.703	0.742	0.797	0.415	–	0.367	0.461	0.427	0.455
HOP-62	0.889	1.01	1.11	0.793	1.04	1.04	1.05	1.07	1	0.856	1.07	1.15	1.02	0.428	0.528	0.572	0.299	0.349
HARA	0.58	0.636	0.57	0.627	0.419	0.793	0.86	0.823	0.804	1.13	1.08	1.24	1.15	0.268	0.302	0.232	0.188	0.157

Cell Line	relative viability ([1]; first compound 0.08 µM)	relative viability ([1]; first compound 0.253 µM)	relative viability ([1]; first compound 0.8 µM)	relative viability ([1]; first compound 2.53 µM)	relative viability ([1]; first compound 8 µM)	relative viability ([2]; first compound 0.2 µM)	relative viability ([2]; first compound 0.6325 µM)	relative viability ([2]; first compound 2 µM)	relative viability ([2]; first compound 6.325 µM)	relative viability ([3]; first compound 0.2 µM)	relative viability ([3]; first compound 0.6325 µM)	relative viability ([3]; first compound 2 µM)	relative viability ([3]; first compound 6.325 µM)	relative viability ([4]; first compound 0.08 µM)	relative viability ([4]; first compound 0.253 µM)	relative viability ([4]; first compound 0.8 µM)	relative viability ([4]; first compound 2.53 µM)	relative viability ([4]; first compound 8 µM)
NCI-H838	0.246	0.355	0.265	0.193	0.332	0.948	1.11	1.13	0.918	1.17	1.13	1.27	1.08	0.24	0.248	0.257	0.218	0.28
NCI-H1755	0.24	0.488	0.411	0.322	0.218	1.03	1.02	1.06	0.927	0.995	0.972	0.951	0.968	0.299	0.379	0.385	0.288	0.299
HCC-78	–	–	–	–	–	0.704	1.06	1.03	0.882	0.844	0.779	0.717	0.602	0.298	0.207	0.254	0.192	0.199
IA-LM	–	–	–	–	–	–	0.888	1.03	0.669	0.761	0.689	1.01	0.64	–	–	–	–	–
NCI-H322M	0.776	0.472	0.783	0.465	0.496	0.573	0.642	0.621	0.605	1.12	1.12	1.19	1.21	0.261	0.249	0.27	0.207	0.242
NCI-H3122	0.094	0.0817	0.108	0.0814	0.0719	1.07	1.01	1.01	1.01	1.01	1.02	1.05	0.992	0.775	0.828	0.94	0.361	0.695
NCI-H650	0.657	–	0.898	0.647	0.509	0.731	0.839	1.3	0.692	–	–	–	–	0.446	–	0.453	0.292	0.319
ChaGo-K-1	0.486	0.526	0.574	0.593	0.501	–	–	–	–	0.987	1.05	1.13	0.72	0.647	0.501	0.79	0.589	0.532
NCI-H2342	0.67	0.54	0.504	0.391	0.608	–	–	–	–	–	–	–	–	0.301	0.292	0.34	0.277	0.31
NCI-H1299	–	–	–	–	–	0.965	0.933	0.972	0.862	1.07	1.04	1.09	1.02	–	–	–	–	–
SW 900	0.152	0.137	0.153	–	0.153	–	–	–	–	–	–	–	–	0.446	0.419	0.462	–	0.252
NCI-H522	1.22	1.07	0.879	0.946	0.88	–	–	–	–	–	–	–	–	0.832	0.783	0.879	0.974	0.747
HCC-366	–	–	–	–	–	1.02	1.03	1.12	0.956	1.04	1.12	1.21	1.05	0.659	0.564	0.733	0.271	0.482
A549	–	–	–	–	–	1.06	0.897	1.04	0.827	1.24	1.13	1.14	1.06	–	–	–	–	–
NCI-H661	0.959	0.945	0.968	0.635	0.918	0.568	0.503	0.68	0.563	–	–	–	–	0.75	0.857	0.967	0.502	0.489
NCI-H1563	0.504	0.541	0.584	0.478	0.522	0.913	0.982	0.81	0.734	–	–	–	–	0.487	0.479	0.442	0.449	0.465
ABC-1	0.668	0.521	0.438	0.55	0.461	1.09	1.14	1.25	1.05	–	–	–	–	0.5	0.591	0.699	0.496	0.53
LCLC-103H	0.741	0.751	0.804	0.602	0.64	–	–	–	–	–	–	–	–	0.361	0.359	0.224	0.251	0.225
NCI-H441	0.389	0.375	0.3	–	0.262	–	–	–	–	0.591	–	0.831	0.277	0.568	0.592	0.704	–	0.502
